Source: PubChem BioAssay (NCI)
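Five compound concentrations were applied to cells in 96-well plates for 48 hours; endpoints were derived by simple linear interpolation of the resulting dose-response curve. TGI is the concentration that stops growth completely.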

Experiments:
Assay in all cases: NCI tumour cell line growth inhibition, 48 h
SK-MEL-5 melanoma = test system: SK-MEL-5 melanoma
MALME-3M melanoma = test system: MALME-3M melanoma
MOLT-4 leukemia = test system: MOLT-4 leukemia
UACC-257 melanoma = test system: UACC-257 melanoma
MCF7 breast = test system: MCF7 breast
DMS 114 small cell lung = test system: DMS 114 small cell lung
HCT-116 colon = test system: HCT-116 colon
SF-295 CNS = test system: SF-295 CNS
SNB-78 CNS = test system: SNB-78 CNS
NCI-H522 lung = test system: NCI-H522 lung
OVCAR-4 ovarian = test system: OVCAR-4 ovarian
U251 CNS = test system: U251 CNS
SF-268 CNS = test system: SF-268 CNS
M19-MEL melanoma = test system: M19-MEL melanoma
SN12K1 renal = test system: SN12K1 renal
OVCAR-8 ovarian = test system: OVCAR-8 ovarian
XF 498 CNS = test system: XF 498 CNS
NCI-H460 lung = test system: NCI-H460 lung
NCI/ADR-RES ovarian = test system: NCI/ADR-RES ovarian
SK-MEL-28 melanoma = test system: SK-MEL-28 melanoma
A549 NSCLC = test system: A549 NSCLC
HCC-2998 colon = test system: HCC-2998 colon
IGROV1 ovarian = test system: IGROV1 ovarian
A498 renal = test system: A498 renal
SNB-75 CNS = test system: SNB-75 CNS
HL-60(TB) leukemia = test system: HL-60(TB) leukemia
HCT-15 colon = test system: HCT-15 colon
RPMI-8226 leukemia = test system: RPMI-8226 leukemia
LOX IMVI melanoma = test system: LOX IMVI melanoma
SW-620 colon = test system: SW-620 colon
P388 leukemia = test system: P388 leukemia
CCRF-CEM leukemia = test system: CCRF-CEM leukemia
SNB-19 CNS = test system: SNB-19 CNS
DLD-1 colon = test system: DLD-1 colon
NCI-H226 lung = test system: NCI-H226 lung
HOP-92 NSCLC = test system: HOP-92 NSCLC
SN12C renal = test system: SN12C renal
K-562 leukemia = test system: K-562 leukemia
HOP-18 NSCLC = test system: HOP-18 NSCLC
OVCAR-5 ovarian = test system: OVCAR-5 ovarian
SK-OV-3 ovarian = test system: SK-OV-3 ovarian
UO-31 renal = test system: UO-31 renal
SK-MEL-2 melanoma = test system: SK-MEL-2 melanoma
KM20L2 colon = test system: KM20L2 colon
RXF 393 renal = test system: RXF 393 renal
OVCAR-3 ovarian = test system: OVCAR-3 ovarian
DMS 273 small cell lung = test system: DMS 273 small cell lung
HOP-62 NSCLC = test system: HOP-62 NSCLC
SF-539 CNS = test system: SF-539 CNS
KM12 colon = test system: KM12 colon
COLO 205 colon = test system: COLO 205 colon
NCI-H23 lung = test system: NCI-H23 lung
UACC-62 melanoma = test system: UACC-62 melanoma
P388/ADR leukemia = test system: P388/ADR leukemia
EKVX NSCLC = test system: EKVX NSCLC
HT29 colon = test system: HT29 colon
CAKI-1 renal = test system: CAKI-1 renal

Cc1c2c(cc3c1[nH]c1ccccc13)C(c1ccc(Cl)cc1)=NCC2
TGI (SK-MEL-5 melanoma): 3.83 µM
TGI (MALME-3M melanoma): 55.9 µM
TGI (MOLT-4 leukemia): 1.79 µM
TGI (UACC-257 melanoma): 43.9 µM
TGI (MCF7 breast): 7.32 µM
TGI (DMS 114 small cell lung): 3.87 µM
TGI (HCT-116 colon): 12.7 µM
TGI (SF-295 CNS): 0.718 µM
TGI (SNB-78 CNS): 27.1 µM
TGI (NCI-H522 lung): 4.45 µM
TGI (OVCAR-4 ovarian): 6.49 µM
TGI (U251 CNS): 5.7 µM
TGI (SF-268 CNS): 22 µM
TGI (M19-MEL melanoma): 88.8 µM
TGI (SN12K1 renal): 0.829 µM
TGI (OVCAR-8 ovarian): 7.14 µM
TGI (XF 498 CNS): 0.0949 µM
TGI (NCI-H460 lung): 1.33 µM
TGI (NCI/ADR-RES ovarian): 1.39 µM
TGI (SK-MEL-28 melanoma): 61.2 µM
TGI (A549 NSCLC): 11.8 µM
TGI (HCC-2998 colon): 10.7 µM
TGI (IGROV1 ovarian): 24.1 µM
TGI (A498 renal): 10.2 µM
TGI (SNB-75 CNS): 1.42 µM
TGI (HL-60(TB) leukemia): 0.717 µM
TGI (HCT-15 colon): 9.89 µM
TGI (RPMI-8226 leukemia): 8.23 µM
TGI (LOX IMVI melanoma): 11.4 µM
TGI (SW-620 colon): 19 µM
TGI (P388 leukemia): 1.47 µM
TGI (CCRF-CEM leukemia): 8.54 µM
TGI (SNB-19 CNS): 1.72 µM
TGI (DLD-1 colon): 19 µM
TGI (NCI-H226 lung): 6.82 µM
TGI (HOP-92 NSCLC): 30.8 µM
TGI (SN12C renal): 3.46 µM
TGI (K-562 leukemia): 8.87 µM
TGI (HOP-18 NSCLC): 10.6 µM
TGI (OVCAR-5 ovarian): 33.7 µM
TGI (SK-OV-3 ovarian): 9.23 µM
TGI (UO-31 renal): 8.99 µM
TGI (SK-MEL-2 melanoma): 7.9 µM
TGI (KM20L2 colon): 0.809 µM
TGI (RXF 393 renal): 2.45 µM
TGI (OVCAR-3 ovarian): 1.78 µM
TGI (DMS 273 small cell lung): 2.62 µM
TGI (HOP-62 NSCLC): 11.2 µM
TGI (SF-539 CNS): 2.53 µM
TGI (KM12 colon): 18.2 µM
TGI (COLO 205 colon): 13.2 µM
TGI (NCI-H23 lung): 2.98 µM
TGI (UACC-62 melanoma): 17.6 µM
TGI (P388/ADR leukemia): 18.4 µM
TGI (EKVX NSCLC): 35.1 µM
TGI (HT29 colon): 0.687 µM

O=C(N[C@@H](c1ccccc1)[C@@H](O)C(=O)OCc1ccc2c(c1)OCO2)c1ccccc1
TGI (SK-MEL-5 melanoma): > 100 µM
TGI (MALME-3M melanoma): > 100 µM
TGI (MOLT-4 leukemia): > 100 µM
TGI (UACC-257 melanoma): > 100 µM
TGI (MCF7 breast): > 100 µM
TGI (DMS 114 small cell lung): > 100 µM
TGI (HCT-116 colon): > 100 µM
TGI (SF-295 CNS): > 100 µM
TGI (SNB-78 CNS): > 100 µM
TGI (NCI-H522 lung): > 100 µM
TGI (OVCAR-4 ovarian): > 100 µM
TGI (U251 CNS): > 100 µM
TGI (SF-268 CNS): > 100 µM
TGI (M19-MEL melanoma): > 100 µM
TGI (SN12K1 renal): > 100 µM
TGI (OVCAR-8 ovarian): > 100 µM
TGI (XF 498 CNS): > 100 µM
TGI (NCI-H460 lung): > 100 µM
TGI (NCI/ADR-RES ovarian): > 100 µM
TGI (SK-MEL-28 melanoma): > 100 µM
TGI (A549 NSCLC): > 100 µM
TGI (HCC-2998 colon): > 100 µM
TGI (IGROV1 ovarian): > 100 µM
TGI (A498 renal): > 100 µM
TGI (SNB-75 CNS): > 100 µM
TGI (HL-60(TB) leukemia): > 100 µM
TGI (HCT-15 colon): > 100 µM
TGI (RPMI-8226 leukemia): > 100 µM
TGI (LOX IMVI melanoma): > 100 µM
TGI (SW-620 colon): > 100 µM
TGI (P388 leukemia): > 100 µM
TGI (CCRF-CEM leukemia): > 100 µM
TGI (SNB-19 CNS): > 100 µM
TGI (DLD-1 colon): > 100 µM
TGI (NCI-H226 lung): > 100 µM
TGI (HOP-92 NSCLC): > 100 µM
TGI (SN12C renal): > 100 µM
TGI (K-562 leukemia): > 100 µM
TGI (CAKI-1 renal): > 100 µM
TGI (HOP-18 NSCLC): > 100 µM
TGI (OVCAR-5 ovarian): > 31.6 µM
TGI (SK-OV-3 ovarian): > 100 µM
TGI (UO-31 renal): > 100 µM
TGI (SK-MEL-2 melanoma): > 100 µM
TGI (KM20L2 colon): > 100 µM
TGI (RXF 393 renal): > 100 µM
TGI (OVCAR-3 ovarian): > 100 µM
TGI (DMS 273 small cell lung): > 100 µM
TGI (HOP-62 NSCLC): > 100 µM
TGI (SF-539 CNS): > 100 µM
TGI (KM12 colon): > 100 µM
TGI (COLO 205 colon): > 100 µM
TGI (NCI-H23 lung): > 100 µM
TGI (UACC-62 melanoma): > 100 µM
TGI (P388/ADR leukemia): > 100 µM
TGI (EKVX NSCLC): > 100 µM
TGI (HT29 colon): > 100 µM
